Source: patent publication US20110021565A1, “PIPERIDINE DERIVATIVES AS NK3 ANTAGONISTS” (priority 2007, published 2011)
Where two headings read alike, the source gives them in different places.

Biological target: T1, recombinant human NK3 receptor (Homo sapiens, UniProt P29371)
T1 construct: expressed in transfected cells; host or cells: HEK293 cells, transient expression; membrane preparation
T1 sequence (P29371 1-465): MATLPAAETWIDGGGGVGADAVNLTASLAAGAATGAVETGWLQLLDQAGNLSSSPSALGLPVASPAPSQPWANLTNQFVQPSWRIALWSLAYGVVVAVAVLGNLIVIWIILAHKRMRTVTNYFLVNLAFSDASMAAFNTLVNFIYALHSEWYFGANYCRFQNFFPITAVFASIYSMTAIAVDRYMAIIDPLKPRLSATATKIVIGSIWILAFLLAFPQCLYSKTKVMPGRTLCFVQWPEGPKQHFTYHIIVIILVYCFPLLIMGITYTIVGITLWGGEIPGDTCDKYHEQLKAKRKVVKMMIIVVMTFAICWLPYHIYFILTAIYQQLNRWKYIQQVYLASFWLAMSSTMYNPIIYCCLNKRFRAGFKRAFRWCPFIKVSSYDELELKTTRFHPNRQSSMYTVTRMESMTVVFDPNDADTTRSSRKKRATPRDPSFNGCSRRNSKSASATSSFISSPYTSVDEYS
Test: [3H]SR142801 competition binding assay
Outline: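 Ki derived by Cheng-Prusoff from Hill-fitted IC50 curves, duplicates, 10 μM SB222200 defining nonspecific binding. Radioligand used at KD concentration against compound at 0.0003-10 μM; transiently transfected HEK293 membranes, 5 μg/well, 75 min room temperature, Tris-HCl/MnCl2/phosphoramidon/BSA pH 7.4. Filter-bound counts read by scintillation.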

[1] = [3H]SR142801, membranes of HEK293 cells transiently expressing recombinant human NK3 receptor, read-out: hNK3 Ki
[2] = representative compounds, [3H]SR142801, HEK293 membranes, human NK3 receptor, read-out: Ki NK3 h

CCN(C1CCN(CCC(C)(C(=O)N(C)Cc2ccc(C)cc2)c2ccc(Cl)c(Cl)c2)CC1)S(C)(=O)=O (stereo not shown) [Example 77, 2-(3,4-Dichloro-phenyl)-4-[4-(ethyl-methanesulfonyl-amino)-piperidin-1-yl]-2,N-dimethyl-N-(4-methyl-benzyl)-butyramide]
Ki [1]: 3.1 nM
Ki [2]: 3.1 nM

CCN(C1CCN(CCC(C)(C(=O)N(C)Cc2ccccc2Cl)c2ccc(Cl)c(Cl)c2)CC1)S(C)(=O)=O (stereo not shown) [Example 78, N-(2-Chloro-benzyl)-2-(3,4-dichloro-phenyl)-4-[4-(ethyl-methanesulfonyl-amino)-piperidin-1-yl]-2,N-dimethyl-butyramide]
Ki [1]: 3.6 nM
Ki [2]: 3.6 nM

CN(Cc1ccc(C(F)(F)F)c(F)c1)C(=O)C(C)(CCN1CCC(N2CCCC2=O)CC1)c1ccc(Cl)c(Cl)c1 (stereo not shown) [Example 81, 2-(3,4-Dichloro-phenyl)-N-(3-fluoro-4-trifluoromethyl-benzyl)-2,N-dimethyl-4-[4-(2-oxo-pyrrolidin-1-yl)-piperidin-1-yl]-butyramide]
Ki [1]: 3 nM
Ki [2]: 3 nM

CN(Cc1ccc(Cl)c(Cl)c1)C(=O)C(C)(CCN1CCC(N2CCCC2=O)CC1)c1ccc(Cl)c(Cl)c1 (stereo not shown) [Example 82, N-(3,4-Dichloro-benzyl)-2-(3,4-dichloro-phenyl)-2,N-dimethyl-4-[4-(2-oxo-pyrrolidin-1-yl)-piperidin-1-yl]-butyramide]
Ki [1]: 1.2 nM
Ki [2]: 1.2 nM

CC(CCN1CCC(N2CCCC2=O)CC1)(C(=O)NCc1ccc(Cl)c(Cl)c1)c1ccc(Cl)c(Cl)c1 (stereo not shown) [Example 83, N-(3,4-Dichloro-benzyl)-2-(3,4-dichloro-phenyl)-2-methyl-4-[4-(2-oxo-pyrrolidin-1-yl)-piperidin-1-yl]-butyramide]
Ki [1]: 2.3 nM
Ki [2]: 2.3 nM

CN(Cc1ccc(Cl)cc1)C(=O)C(C)(CCN1CCC(N2CCCC2=O)CC1)c1ccc(Cl)c(Cl)c1 (stereo not shown) [Example 84, N-(4-Chloro-benzyl)-2-(3,4-dichloro-phenyl)-2,N-dimethyl-4-[4-(2-oxo-pyrrolidin 1-yl)-piperidin-1-yl]-butyramide]
Ki [1]: 2.1 nM
Ki [2]: 2.1 nM

CN(Cc1ccc(Cl)c(C(F)(F)F)c1)C(=O)C(C)(CCN1CCC(N2CCCC2=O)CC1)c1ccc(Cl)c(Cl)c1 (stereo not shown) [Example 85, N-(4-Chloro-3-trifluoromethyl-benzyl)-2-(3,4-dichloro-phenyl)-2,N-dimethyl-4-[4-(2-oxo-pyrrolidin-1-yl)-piperidin-1-yl]-butyramide]
Ki [1]: 1.4 nM
Ki [2]: 1.4 nM

CN(Cc1ccc(F)c(C(F)(F)F)c1)C(=O)C(C)(CCN1CCC(N2CCCC2=O)CC1)c1ccc(Cl)c(Cl)c1 (stereo not shown) [Example 86, 2-(3,4-Dichlorophenyl)-N-(4-fluoro-3-trifluoromethyl-benzyl)-2,N-dimethyl-4-[4-(2-oxo-pyrrolidin-1-yl)-piperidin-1-yl]-butyramide]
Ki [1]: 1.4 nM
Ki [2]: 1.4 nM

CN(Cc1cccc(Cl)c1)C(=O)C(C)(CCN1CCC(N2CCCC2=O)CC1)c1ccc(Cl)c(Cl)c1 (stereo not shown) [Example 87, N-(3-Chloro-benzyl)-2-(3,4-dichloro-phenyl)-2,N-dimethyl-4-[4-(2-oxo-pyrrolidin-1-yl)-piperidin-1-yl]-butyramide]
Ki [1]: 4.6 nM
Ki [2]: 4.6 nM

CN(Cc1ccc(C(F)(F)F)cc1)C(=O)C(C)(CCN1CCC(N2CCCC2=O)CC1)c1ccc(Cl)c(Cl)c1 (stereo not shown) [Example 88, 2-(3,4-Dichloro-phenyl)-2,N-dimethyl-4-[4-(2-oxo-pyrrolidin-1-yl)-piperidin-1-yl]-N-(4-trifluoromethyl-benzyl)-butyramide]
Ki [1]: 1.8 nM
Ki [2]: 1.8 nM

Cc1ccc(CN(C)C(=O)C(C)(CCN2CCC(N3CCCC3=O)CC2)c2ccc(Cl)c(Cl)c2)cc1 (stereo not shown) [Example 89, 2-(3,4-Dichloro-phenyl)-2,N-dimethyl-N-(4-methyl-benzyl)-4-[4-(2-oxo-pyrrolidin-1-yl)-piperidin-1-yl]-butyramide]
Ki [1]: 5.3 nM
Ki [2]: 5.3 nM
